Source: PubChem BioAssay (NCI)
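In this assay, cells in 96-well plates receive the compound at five concentrations for 48 hours. Endpoints are linearly interpolated between the surrounding concentrations. Definition used: TGI = concentration required for complete inhibition of growth.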

Assays:
Experiment in all cases: growth of human tumour cells (NCI), 48 h
PC-3 prostate = test system: PC-3 prostate
HOP-92 NSCLC = test system: HOP-92 NSCLC
NCI-H522 lung = test system: NCI-H522 lung
CAKI-1 renal = test system: CAKI-1 renal
UACC-257 melanoma = test system: UACC-257 melanoma
SNB-19 CNS = test system: SNB-19 CNS
HL-60(TB) leukemia = test system: HL-60(TB) leukemia
HCT-116 colon = test system: HCT-116 colon
HCC-2998 colon = test system: HCC-2998 colon
SN12C renal = test system: SN12C renal
U251 CNS = test system: U251 CNS
MDA-MB-231 breast = test system: MDA-MB-231 breast
LOX IMVI melanoma = test system: LOX IMVI melanoma
SF-539 CNS = test system: SF-539 CNS
786-0 renal = test system: 786-0 renal
RPMI-8226 leukemia = test system: RPMI-8226 leukemia
SF-268 CNS = test system: SF-268 CNS
SK-OV-3 ovarian = test system: SK-OV-3 ovarian
DU-145 prostate = test system: DU-145 prostate
NCI/ADR-RES ovarian = test system: NCI/ADR-RES ovarian
A549 NSCLC = test system: A549 NSCLC
HS 578T breast = test system: HS 578T breast
OVCAR-4 ovarian = test system: OVCAR-4 ovarian
BT-549 breast = test system: BT-549 breast
K-562 leukemia = test system: K-562 leukemia
OVCAR-3 ovarian = test system: OVCAR-3 ovarian
T-47D breast = test system: T-47D breast
MDA-MB-435 = test system: MDA-MB-435
CCRF-CEM leukemia = test system: CCRF-CEM leukemia
COLO 205 colon = test system: COLO 205 colon
SNB-75 CNS = test system: SNB-75 CNS
IGROV1 ovarian = test system: IGROV1 ovarian
SW-620 colon = test system: SW-620 colon
UO-31 renal = test system: UO-31 renal
TK-10 renal = test system: TK-10 renal
NCI-H23 lung = test system: NCI-H23 lung
MOLT-4 leukemia = test system: MOLT-4 leukemia
OVCAR-5 ovarian = test system: OVCAR-5 ovarian
UACC-62 melanoma = test system: UACC-62 melanoma
HCT-15 colon = test system: HCT-15 colon
SF-295 CNS = test system: SF-295 CNS
NCI-H460 lung = test system: NCI-H460 lung
HT29 colon = test system: HT29 colon
MDA-N = test system: MDA-N
OVCAR-8 ovarian = test system: OVCAR-8 ovarian
MCF7 breast = test system: MCF7 breast
MALME-3M melanoma = test system: MALME-3M melanoma
ACHN renal = test system: ACHN renal
NCI-H226 lung = test system: NCI-H226 lung
SK-MEL-2 melanoma = test system: SK-MEL-2 melanoma
M14 melanoma = test system: M14 melanoma
SK-MEL-28 melanoma = test system: SK-MEL-28 melanoma
SK-MEL-5 melanoma = test system: SK-MEL-5 melanoma
EKVX NSCLC = test system: EKVX NSCLC
A498 renal = test system: A498 renal
KM12 colon = test system: KM12 colon
HOP-62 NSCLC = test system: HOP-62 NSCLC
RXF 393 renal = test system: RXF 393 renal

With `CC1(C)OCC(C2CCC3(C)C4=CCC5C(C)(C)C(O)CCC5(C)C4CCC23C)CC(O)C1O` (centres undefined) the TGI (PC-3 prostate) was 26.6 µM, the TGI (HOP-92 NSCLC) was 36.4 µM and the TGI (NCI-H522 lung) was 36.3 µM. It also gave a TGI (CAKI-1 renal) of 27.5 µM, a TGI (UACC-257 melanoma) of 30.6 µM and a TGI (SNB-19 CNS) of 29.5 µM. The TGI (HL-60(TB) leukemia) was 56.7 µM, the TGI (HCT-116 colon) was 27.3 µM and the TGI (HCC-2998 colon) was 32.3 µM. For the same molecule, the TGI (SN12C renal) was 36.2 µM, the TGI (U251 CNS) was 31.3 µM and the TGI (MDA-MB-231 breast) was 35.7 µM. It also gave a TGI (LOX IMVI melanoma) of 31.7 µM, a TGI (SF-539 CNS) of 39.9 µM and a TGI (786-0 renal) of 28.7 µM. The TGI (RPMI-8226 leukemia) was 48.6 µM, the TGI (SF-268 CNS) was 37.6 µM and the TGI (SK-OV-3 ovarian) was 35.5 µM. It also gave a TGI (DU-145 prostate) of 29 µM, a TGI (NCI/ADR-RES ovarian) of 39.5 µM and a TGI (A549 NSCLC) of 36 µM. For the same molecule, the TGI (HS 578T breast) was 44.7 µM, the TGI (OVCAR-4 ovarian) was 32.3 µM and the TGI (BT-549 breast) was 32.9 µM. For the same molecule, the TGI (K-562 leukemia) was 21.6 µM, the TGI (OVCAR-3 ovarian) was 30 µM and the TGI (T-47D breast) was 23.8 µM. The TGI (MDA-MB-435) was 31.8 µM, the TGI (CCRF-CEM leukemia) was 68.7 µM and the TGI (COLO 205 colon) was 43.5 µM. The TGI (SNB-75 CNS) was 29 µM, the TGI (IGROV1 ovarian) was 33.1 µM and the TGI (SW-620 colon) was 37.4 µM. It also gave a TGI (UO-31 renal) of 33.2 µM, a TGI (TK-10 renal) of 28.7 µM and a TGI (NCI-H23 lung) of 38.2 µM. For the same molecule, the TGI (MOLT-4 leukemia) was 35.9 µM, the TGI (OVCAR-5 ovarian) was 36.2 µM and the TGI (UACC-62 melanoma) was 29.1 µM. The TGI (HCT-15 colon) was 32.8 µM, the TGI (SF-295 CNS) was 35.6 µM and the TGI (NCI-H460 lung) was 41.4 µM. It also gave a TGI (HT29 colon) of 33.4 µM, a TGI (MDA-N) of 34.5 µM and a TGI (OVCAR-8 ovarian) of 33.3 µM. For the same molecule, the TGI (MCF7 breast) was 47.3 µM, the TGI (MALME-3M melanoma) was 30.6 µM and the TGI (ACHN renal) was 45.9 µM. It also gave a TGI (NCI-H226 lung) of 32.9 µM, a TGI (SK-MEL-2 melanoma) of 32.5 µM and a TGI (M14 melanoma) of 35.4 µM. The TGI (SK-MEL-28 melanoma) was 32.6 µM, the TGI (SK-MEL-5 melanoma) was 28.7 µM and the TGI (EKVX NSCLC) was 28.5 µM. The TGI (A498 renal) was 42.6 µM and the TGI (KM12 colon) was 28.1 µM.
Molecule `Cc1ccc(C[N+](C)(C)N)cc1C` has a TGI (PC-3 prostate) of over 10 µM, a TGI (HOP-92 NSCLC) of over 10 µM and a TGI (NCI-H522 lung) of over 10 µM. For the same molecule, the TGI (CAKI-1 renal) was over 10 µM, the TGI (UACC-257 melanoma) was over 10 µM and the TGI (SNB-19 CNS) was over 10 µM. It also gave a TGI (HL-60(TB) leukemia) of over 10 µM, a TGI (HCT-116 colon) of over 10 µM and a TGI (HCC-2998 colon) of over 10 µM. The TGI (SN12C renal) was over 10 µM, the TGI (U251 CNS) was over 10 µM and the TGI (MDA-MB-231 breast) was over 10 µM. The TGI (LOX IMVI melanoma) was over 10 µM, the TGI (SF-539 CNS) was over 10 µM and the TGI (786-0 renal) was over 10 µM. For the same molecule, the TGI (RPMI-8226 leukemia) was over 10 µM, the TGI (SF-268 CNS) was over 10 µM and the TGI (SK-OV-3 ovarian) was over 10 µM. It also gave a TGI (DU-145 prostate) of over 10 µM, a TGI (NCI/ADR-RES ovarian) of over 10 µM and a TGI (A549 NSCLC) of over 10 µM. For the same molecule, the TGI (HS 578T breast) was over 10 µM, the TGI (OVCAR-4 ovarian) was over 10 µM and the TGI (BT-549 breast) was over 10 µM. For the same molecule, the TGI (K-562 leukemia) was over 10 µM, the TGI (OVCAR-3 ovarian) was over 10 µM and the TGI (T-47D breast) was over 10 µM. It also gave a TGI (MDA-MB-435) of over 10 µM, a TGI (CCRF-CEM leukemia) of over 10 µM and a TGI (COLO 205 colon) of over 10 µM. It also gave a TGI (SNB-75 CNS) of over 10 µM, a TGI (IGROV1 ovarian) of over 10 µM and a TGI (SW-620 colon) of over 10 µM. The TGI (UO-31 renal) was over 10 µM, the TGI (TK-10 renal) was over 10 µM and the TGI (NCI-H23 lung) was over 10 µM. For the same molecule, the TGI (MOLT-4 leukemia) was over 10 µM, the TGI (OVCAR-5 ovarian) was over 10 µM and the TGI (UACC-62 melanoma) was over 10 µM. For the same molecule, the TGI (HOP-62 NSCLC) was over 10 µM, the TGI (HCT-15 colon) was over 10 µM and the TGI (SF-295 CNS) was over 10 µM. The TGI (NCI-H460 lung) was over 10 µM, the TGI (HT29 colon) was over 10 µM and the TGI (MDA-N) was over 10 µM. The TGI (OVCAR-8 ovarian) was over 10 µM, the TGI (MCF7 breast) was over 10 µM and the TGI (MALME-3M melanoma) was over 10 µM. The TGI (ACHN renal) was over 10 µM, the TGI (NCI-H226 lung) was over 10 µM and the TGI (RXF 393 renal) was over 10 µM. It also gave a TGI (M14 melanoma) of over 10 µM, a TGI (SK-MEL-28 melanoma) of over 10 µM and a TGI (SK-MEL-5 melanoma) of over 10 µM. For the same molecule, the TGI (EKVX NSCLC) was over 10 µM, the TGI (A498 renal) was over 10 µM and the TGI (KM12 colon) was over 10 µM.
With `OCCNc1ncnc2nc[nH]c12` the TGI (PC-3 prostate) was over 100 µM, the TGI (HOP-92 NSCLC) was over 100 µM and the TGI (NCI-H522 lung) was over 100 µM. For the same molecule, the TGI (CAKI-1 renal) was over 100 µM, the TGI (UACC-257 melanoma) was over 100 µM and the TGI (SNB-19 CNS) was over 100 µM. The TGI (HL-60(TB) leukemia) was over 100 µM, the TGI (HCT-116 colon) was over 100 µM and the TGI (HCC-2998 colon) was over 100 µM. It also gave a TGI (SN12C renal) of over 100 µM, a TGI (U251 CNS) of over 100 µM and a TGI (MDA-MB-231 breast) of over 100 µM. The TGI (LOX IMVI melanoma) was over 100 µM, the TGI (786-0 renal) was over 100 µM and the TGI (RPMI-8226 leukemia) was over 100 µM. The TGI (SF-268 CNS) was over 100 µM, the TGI (SK-OV-3 ovarian) was over 100 µM and the TGI (DU-145 prostate) was over 100 µM. The TGI (NCI/ADR-RES ovarian) was over 100 µM, the TGI (A549 NSCLC) was over 100 µM and the TGI (HS 578T breast) was over 100 µM. The TGI (OVCAR-4 ovarian) was over 100 µM, the TGI (BT-549 breast) was over 100 µM and the TGI (K-562 leukemia) was over 100 µM. The TGI (OVCAR-3 ovarian) was over 100 µM, the TGI (T-47D breast) was over 100 µM and the TGI (MDA-MB-435) was over 100 µM. For the same molecule, the TGI (COLO 205 colon) was over 100 µM, the TGI (SNB-75 CNS) was over 100 µM and the TGI (IGROV1 ovarian) was over 100 µM. It also gave a TGI (SW-620 colon) of over 100 µM, a TGI (UO-31 renal) of over 100 µM and a TGI (TK-10 renal) of over 100 µM. The TGI (NCI-H23 lung) was over 100 µM, the TGI (MOLT-4 leukemia) was over 100 µM and the TGI (OVCAR-5 ovarian) was over 100 µM. For the same molecule, the TGI (UACC-62 melanoma) was over 100 µM, the TGI (HOP-62 NSCLC) was over 100 µM and the TGI (HCT-15 colon) was over 100 µM. The TGI (SF-295 CNS) was over 100 µM, the TGI (NCI-H460 lung) was over 100 µM and the TGI (HT29 colon) was over 100 µM. For the same molecule, the TGI (MDA-N) was over 100 µM, the TGI (OVCAR-8 ovarian) was over 100 µM and the TGI (MCF7 breast) was over 100 µM. It also gave a TGI (MALME-3M melanoma) of over 100 µM, a TGI (ACHN renal) of over 100 µM and a TGI (NCI-H226 lung) of over 100 µM. The TGI (RXF 393 renal) was over 100 µM, the TGI (SK-MEL-2 melanoma) was over 100 µM and the TGI (M14 melanoma) was over 100 µM. The TGI (SK-MEL-28 melanoma) was over 100 µM, the TGI (SK-MEL-5 melanoma) was over 100 µM and the TGI (EKVX NSCLC) was over 100 µM. It also gave a TGI (A498 renal) of over 100 µM and a TGI (KM12 colon) of over 100 µM.
